Our source for the Ki values is ChEMBL document CHEMBL1129789, “Dopamine D3 and D4 receptor antagonists: synthesis and structure--activity relationships of (S)-(+)-N-(1-Benzyl-3-pyrrolidinyl)-5-chloro-4- [(cyclopropylcarbonyl) amino]-2-methoxybenzamide (YM-43611) and related compounds” (J Med Chem, 1996).

SMILES strings stand for the structures.

The target in assay [1] is T1, 5-hydroxytryptamine receptor 1A (Rattus norvegicus, UniProt P19327).
T1 sequence (P19327 whole entry): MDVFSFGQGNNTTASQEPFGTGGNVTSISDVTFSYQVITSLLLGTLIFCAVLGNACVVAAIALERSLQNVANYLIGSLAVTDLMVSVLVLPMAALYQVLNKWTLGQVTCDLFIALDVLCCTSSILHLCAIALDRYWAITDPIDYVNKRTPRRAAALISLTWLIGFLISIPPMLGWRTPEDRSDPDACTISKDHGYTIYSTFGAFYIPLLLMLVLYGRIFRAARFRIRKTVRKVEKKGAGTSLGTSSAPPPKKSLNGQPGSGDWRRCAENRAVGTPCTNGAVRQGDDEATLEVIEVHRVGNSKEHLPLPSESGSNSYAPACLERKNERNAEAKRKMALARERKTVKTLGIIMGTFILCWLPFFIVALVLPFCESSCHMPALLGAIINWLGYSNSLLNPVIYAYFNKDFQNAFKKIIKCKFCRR
The assay is described as follows: Compound was tested for the Binding affinity against rat hippocampal 5-hydroxytryptamine 1A receptor by Radio ligand [3H]8-OH-DPAT binding assay. Format: tissue-based, Hippocampus.

The target in a further assay is D(1A) dopamine receptor (Homo sapiens, UniProt P21728). The assay is described as follows: Compound was tested for the Binding affinity against Human cloned Dopamine receptor D1 by Radio ligand ([3H]SCH-23390) binding assay.
Chain of D(1A) dopamine receptor (P21728 whole entry): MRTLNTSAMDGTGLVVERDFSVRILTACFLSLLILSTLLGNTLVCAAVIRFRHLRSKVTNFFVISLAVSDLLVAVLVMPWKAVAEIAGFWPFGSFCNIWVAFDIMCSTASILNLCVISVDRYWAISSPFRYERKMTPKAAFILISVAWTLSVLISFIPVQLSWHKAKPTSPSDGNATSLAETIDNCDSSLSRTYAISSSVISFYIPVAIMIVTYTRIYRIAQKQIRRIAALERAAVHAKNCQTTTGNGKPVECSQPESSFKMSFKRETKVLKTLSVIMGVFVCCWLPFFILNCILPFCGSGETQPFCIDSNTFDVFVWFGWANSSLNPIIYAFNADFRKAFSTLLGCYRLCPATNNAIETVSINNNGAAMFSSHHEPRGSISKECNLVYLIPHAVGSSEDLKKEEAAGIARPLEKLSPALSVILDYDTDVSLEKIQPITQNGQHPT
Assay [2] has as its target T2, Adrenergic receptor alpha-2 (Rattus norvegicus, UniProt P22086+P19328+P22909).
T2 sequence (P22086 whole entry): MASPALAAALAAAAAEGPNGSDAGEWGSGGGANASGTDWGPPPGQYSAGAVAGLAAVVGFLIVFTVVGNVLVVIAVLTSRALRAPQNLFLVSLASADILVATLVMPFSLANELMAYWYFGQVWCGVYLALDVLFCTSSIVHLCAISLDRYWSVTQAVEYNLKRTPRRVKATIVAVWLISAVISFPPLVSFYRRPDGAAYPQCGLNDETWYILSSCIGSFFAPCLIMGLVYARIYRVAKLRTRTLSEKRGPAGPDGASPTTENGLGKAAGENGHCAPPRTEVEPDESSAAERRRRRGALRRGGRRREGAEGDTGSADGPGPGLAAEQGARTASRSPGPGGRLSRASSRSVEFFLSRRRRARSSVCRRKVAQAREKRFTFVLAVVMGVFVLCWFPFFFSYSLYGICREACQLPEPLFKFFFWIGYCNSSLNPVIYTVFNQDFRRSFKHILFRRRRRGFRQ
T2 sequence (P19328 whole entry): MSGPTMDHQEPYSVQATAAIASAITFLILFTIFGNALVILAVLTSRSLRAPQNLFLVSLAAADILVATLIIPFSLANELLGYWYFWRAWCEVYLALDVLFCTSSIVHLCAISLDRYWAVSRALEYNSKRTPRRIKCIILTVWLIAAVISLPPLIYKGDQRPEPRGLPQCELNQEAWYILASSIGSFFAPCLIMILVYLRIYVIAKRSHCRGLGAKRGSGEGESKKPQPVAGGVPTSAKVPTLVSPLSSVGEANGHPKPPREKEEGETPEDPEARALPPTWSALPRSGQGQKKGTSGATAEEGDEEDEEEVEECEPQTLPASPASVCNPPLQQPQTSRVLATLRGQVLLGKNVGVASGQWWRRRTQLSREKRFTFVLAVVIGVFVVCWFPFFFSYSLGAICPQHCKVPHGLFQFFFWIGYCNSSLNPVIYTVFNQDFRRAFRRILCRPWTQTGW
T2 sequence (P22909 whole entry): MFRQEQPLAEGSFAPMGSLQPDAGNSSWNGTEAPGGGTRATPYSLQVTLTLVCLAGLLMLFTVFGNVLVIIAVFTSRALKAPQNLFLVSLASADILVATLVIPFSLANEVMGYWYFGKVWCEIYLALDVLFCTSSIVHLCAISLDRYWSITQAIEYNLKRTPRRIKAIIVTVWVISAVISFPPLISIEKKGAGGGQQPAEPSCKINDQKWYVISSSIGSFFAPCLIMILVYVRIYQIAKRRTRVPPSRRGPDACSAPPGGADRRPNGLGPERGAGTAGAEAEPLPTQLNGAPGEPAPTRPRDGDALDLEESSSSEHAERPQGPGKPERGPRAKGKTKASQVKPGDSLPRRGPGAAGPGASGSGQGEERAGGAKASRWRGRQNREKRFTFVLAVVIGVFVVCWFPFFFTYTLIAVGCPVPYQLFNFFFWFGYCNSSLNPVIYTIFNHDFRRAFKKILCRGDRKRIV
The assay is described as follows: Compound was tested for the Binding affinity against rat cortical Alpha-2 adrenergic receptor by Radio ligand ([3H]-Rx-821002) binding assay. The assay is classed as protein assay.

In another assay the target is Histamine H1 receptor (Rattus norvegicus, UniProt P31390). The assay is described as follows: Compound was tested for the Binding affinity against rat cortical H1 receptor by Radio ligand [3H]pyrilamine binding assay.
Chain of Histamine H1 receptor (P31390 whole entry): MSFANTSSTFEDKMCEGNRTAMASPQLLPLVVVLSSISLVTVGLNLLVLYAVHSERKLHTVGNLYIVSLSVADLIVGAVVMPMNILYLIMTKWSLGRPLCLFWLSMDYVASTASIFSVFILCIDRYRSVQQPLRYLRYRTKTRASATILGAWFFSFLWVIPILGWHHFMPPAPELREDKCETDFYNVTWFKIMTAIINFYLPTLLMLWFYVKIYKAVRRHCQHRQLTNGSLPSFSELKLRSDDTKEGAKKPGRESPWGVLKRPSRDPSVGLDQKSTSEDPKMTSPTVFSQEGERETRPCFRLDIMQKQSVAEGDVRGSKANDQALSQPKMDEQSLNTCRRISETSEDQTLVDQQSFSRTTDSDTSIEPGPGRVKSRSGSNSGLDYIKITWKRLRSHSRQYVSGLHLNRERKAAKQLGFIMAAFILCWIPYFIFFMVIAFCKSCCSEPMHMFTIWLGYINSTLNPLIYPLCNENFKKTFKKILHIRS
The target in assay [3] is T3, Muscarinic acetylcholine receptor M2 (Rattus norvegicus, UniProt P10980).
T3 sequence (P10980 whole entry): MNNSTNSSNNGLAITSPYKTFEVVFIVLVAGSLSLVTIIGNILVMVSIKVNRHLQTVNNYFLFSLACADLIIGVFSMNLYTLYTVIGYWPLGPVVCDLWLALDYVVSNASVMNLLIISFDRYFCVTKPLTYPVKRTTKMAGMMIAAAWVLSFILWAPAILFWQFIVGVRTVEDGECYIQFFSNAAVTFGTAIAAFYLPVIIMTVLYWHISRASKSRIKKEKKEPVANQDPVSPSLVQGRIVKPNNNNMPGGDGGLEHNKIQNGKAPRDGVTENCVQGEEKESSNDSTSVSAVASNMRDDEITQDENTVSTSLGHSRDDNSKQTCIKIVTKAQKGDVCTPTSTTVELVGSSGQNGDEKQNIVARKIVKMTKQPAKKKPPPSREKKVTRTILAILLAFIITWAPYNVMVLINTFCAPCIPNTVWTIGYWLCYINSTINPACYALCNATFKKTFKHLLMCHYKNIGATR
The assay is described as follows: Compound was tested for the Binding affinity against rat heart Muscarinic acetylcholine receptor M2 by Radio ligand [3H]quinuclidinyl binding assay.

The target of assay [4] is T4, Muscarinic acetylcholine receptor M1 (Rattus norvegicus, UniProt P08482).
T4 sequence (P08482 whole entry): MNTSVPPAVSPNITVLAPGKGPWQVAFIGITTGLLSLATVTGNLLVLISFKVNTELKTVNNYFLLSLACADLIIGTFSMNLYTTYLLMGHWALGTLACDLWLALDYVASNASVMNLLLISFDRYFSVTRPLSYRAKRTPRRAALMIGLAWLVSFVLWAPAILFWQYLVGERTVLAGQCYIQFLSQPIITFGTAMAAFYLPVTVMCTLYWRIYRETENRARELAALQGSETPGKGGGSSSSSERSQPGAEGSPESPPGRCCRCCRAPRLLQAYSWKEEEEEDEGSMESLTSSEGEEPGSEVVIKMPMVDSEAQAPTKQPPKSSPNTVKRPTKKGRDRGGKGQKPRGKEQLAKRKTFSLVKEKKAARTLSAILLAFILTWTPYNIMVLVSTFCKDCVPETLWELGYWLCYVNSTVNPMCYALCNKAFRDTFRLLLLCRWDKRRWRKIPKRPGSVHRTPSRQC
The assay is described as follows: Compound was tested for the Binding affinity against rat cortical Muscarinic acetylcholine receptor M1 by Radio ligand [3H]pirenzepine binding assay.

One may read the Ki as the dissociation constant of the complex between target and ligand, obtained from inhibition or displacement. A lower Ki goes with tighter binding. `COc1cc(NC(=O)C2CC2)c(Cl)cc1C(=O)N[C@H]1CCN(Cc2ccccc2)C1`: the inhibition constant (Ki) is > 10 µM in assay [1]; > 10 µM on D(1A) dopamine receptor; 4.3 µM in assay [2]; > 10 µM at Histamine H1 receptor; 7.3 µM in assay [3]; 5.4 µM in assay [4].
